In experiment [1] the target is Adrenergic receptor alpha-1 (Oryctolagus cuniculus). Briefly: Inhibition of phenylephrine-induced contractions in white rabbit prostate.
Experiment [2] addresses T1, Steroid 5-alpha-reductase (Rattus norvegicus, UniProt P24008+P31214).
T1 sequence (P24008 whole entry): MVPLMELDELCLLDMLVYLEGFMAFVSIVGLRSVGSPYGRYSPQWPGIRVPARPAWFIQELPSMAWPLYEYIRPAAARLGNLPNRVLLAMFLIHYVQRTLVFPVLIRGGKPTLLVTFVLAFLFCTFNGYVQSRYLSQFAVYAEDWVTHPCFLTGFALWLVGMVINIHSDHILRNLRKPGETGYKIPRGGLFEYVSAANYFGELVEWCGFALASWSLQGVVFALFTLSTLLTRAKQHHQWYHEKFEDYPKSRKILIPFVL
T1 sequence (P31214 whole entry): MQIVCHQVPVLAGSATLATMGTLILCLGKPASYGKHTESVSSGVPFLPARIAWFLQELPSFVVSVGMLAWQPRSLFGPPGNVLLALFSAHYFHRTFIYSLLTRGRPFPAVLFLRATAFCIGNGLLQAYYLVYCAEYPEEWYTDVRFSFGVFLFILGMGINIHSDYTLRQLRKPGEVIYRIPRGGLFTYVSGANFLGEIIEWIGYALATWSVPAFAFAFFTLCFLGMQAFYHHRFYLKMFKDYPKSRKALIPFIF
Briefly: Inhibitory activity against prostatic 5-alpha reductase in Sprague-Dawley rat. The experiment is classed as protein assay.

The source of these data is ChEMBL document CHEMBL1130643, “Synthesis of benzanilide derivatives as dual acting agents with alpha 1-adrenoceptor antagonistic action and steroid 5-alpha reductase inhibitory activity” (Bioorg Med Chem Lett, 1998).

In the case of `COc1ccccc1N1CCN(CCCOc2ccc(C(=O)Nc3ccccc3OCCCC(=O)O)cc2)CC1`, in experiment [1], the pA2 stood at 7. Besides, in experiment [2], the IC50 amounted to 41000 nM.

`COc1ccccc1NC(=O)c1ccc(OCCCN2CCN(c3ccccc3OC)CC2)cc1` came in with a pA2 in experiment [1] of 7.1. `COc1ccccc1N1CCN(CCC(Oc2ccc(NC(=O)c3ccccc3OCCCC(=O)O)cc2)c2ccc(C)cc2)CC1` (stereo not given): the pA2 in experiment [1] is 7.1. In experiment [2], this compound registered an IC50 of 440 nM. The like results for `COc1ccccc1N1CCN(CCC(Oc2ccc(NC(=O)c3ccccc3OCCCC(=O)O)cc2)c2ccccc2)CC1` (stereo not given) were, in that order, 7.1 and 730 nM. The like results for `COc1ccccc1N1CCN(CCCCCCOc2ccc(C(=O)Nc3ccccc3OCCCC(=O)O)cc2)CC1` were, in that order, 7 and 9500 nM. As to `COc1ccccc1N1CCN(CCOc2ccc(C(=O)Nc3ccccc3OCCCC(=O)O)cc2)CC1`, the pA2 in experiment [1] was found to be 6.6. Besides, the IC50 in experiment [2] is 29000 nM.

In experiment [1], `COc1ccccc1N1CCN(CCC(Oc2ccc(C(=O)Nc3ccccc3OCCCC(=O)O)cc2)c2ccc(Br)cc2)CC1` (stereo not given) returned a pA2 of 7. The IC50 in experiment [2] worked out at 210 nM. The like results for `COc1ccc(C(CCN2CCN(c3ccccc3OC)CC2)Oc2ccc(C(=O)Nc3ccccc3OCCCC(=O)O)cc2)cc1` (stereo not given) were, in that order, 6.7 and 170 nM. The like results for `COc1ccccc1N1CCN(CCCCC(Oc2ccc(C(=O)Nc3ccccc3OCCCC(=O)O)cc2)c2ccccc2)CC1` (stereo not given) were, in that order, 6.6 and 910 nM.

With `COc1ccccc1N1CCN(CCCC(Oc2ccc(C(=O)Nc3ccccc3OCCCC(=O)O)cc2)c2ccccc2)CC1` (stereo not given), the pA2 in experiment [1] is listed as 6.5. The IC50 in experiment [2] was 750 nM. Compound `COc1ccccc1N1CCN(CCCCOc2ccc(C(=O)Nc3ccccc3OCCCC(=O)O)cc2)CC1` had a pA2 in experiment [1] of 7.1. This compound also displayed an IC50 in experiment [2] of 43000 nM. The like results for `COc1ccccc1N1CCN(CCC(Oc2ccc(NC(=O)c3ccccc3OCCCC(=O)O)cc2)c2ccc(CC(C)C)cc2)CC1` (stereo not given) were, in that order, 5.2 and 96 nM. The like results for `COc1ccccc1N1CCN(CCC(Oc2ccc(C(=O)Nc3ccccc3OCCCC(=O)O)cc2)c2ccc(CC(C)C)cc2)CC1` (stereo not given) were, in that order, 5.7 and 39 nM. The like results for `COc1ccccc1N1CCN(CCC(Oc2ccc(C(=O)Nc3ccccc3OCCCC(=O)O)cc2)c2ccccc2)CC1` (stereo not given) were, in that order, 7.6 and 1000 nM. Compound `COc1ccccc1N1CCN(CCC(Oc2ccc(C(=O)Nc3ccccc3OCCCC(=O)O)cc2)c2ccc(C)cc2)CC1` (stereo not given) showed a pA2 in experiment [1] of 7.8. In experiment [2], this compound gave an IC50 of 67 nM. On to `CCc1ccc(C(CCN2CCN(c3ccccc3OC)CC2)Oc2ccc(C(=O)Nc3ccccc3OCCCC(=O)O)cc2)cc1` (stereo not given), for which the pA2 in experiment [1] was determined as 7.4. In experiment [2], this compound returned an IC50 of 70 nM.

In experiment [1], `CCc1ccc(C(CCN2CCN(c3ccccc3OC)CC2)Oc2ccc(NC(=O)c3ccccc3OCCCC(=O)O)cc2)cc1` (stereo not given) gave a pA2 of 6.7. This compound had an IC50 in experiment [2] of 130 nM. As to `COc1ccccc1N1CCN(CCC(Oc2ccc(C(=O)Nc3ccccc3OCCCC(=O)O)cc2)c2cccc(C)c2)CC1` (stereo not given), the pA2 in experiment [1] amounted to 6.6. Also, the IC50 in experiment [2] is 360 nM.
